# Data from patent publication US20190233884A1 (University of Southern California, priority 2016, published 2019).
# Test system: patients with refractory metastatic colorectal cancer (mCRC)
# Assay: PFS, OS and disease control in the training (evaluation) cohort of refractory mCRC patients receiving TAS-102 (n=52, Japan), by baseline characteristics, SNP genotype and toxicity
# Assay type: in vivo, human
# Conditions: for OS (median) / PFS (median): evaluation cohort (JPN TAS-102); for Disease Control CR/PR/SD, patients n (%) / Median OS (95% CI) / Median PFS (95% CI) / PD, patients n (%) / HR OS (95% CI) / HR PFS (95% CI) / Disease Control Rate SD, patients n (%): evaluation cohort
# Description: All patients underwent the treatment in salvage-line setting. […]
# Genomic DNA was extracted from peripheral whole blood in patients of all cohorts using the QIAmp Kit (Qiagen, Valencia, Calif., USA) according to the manufacturer's protocol (www.qiagen.com). The candidate SNPs were genotyped using PCR-based direct DNA sequence analysis by ABI 3100A Capillary Genetic Analyzer and Sequencing Scanner v1.0 (Applied Biosystems). Amplification of extracted DNA was carried out using both forward and reverse primers for each gene polymorphism as shown in Table 1. […] The investigators analyzing SNPs were blinded to the clinical data of the study patients.
# The primary endpoint in this study was progression-free survival (PFS), and the secondary endpoints were overall survival (OS) and disease control rate (DCR). PFS was calculated from the date of starting treatment to the first observation of disease progression or death from any cause. If a patient had no disease progression or death, PFS was censored at the date of last follow up. OS was calculated from the date of starting treatment until the date of death from any cause or the date of the last follow-up, at which point OS was censored. The disease control rate (DCR) was defined as the proportion of patients who achieved a stable disease (SD) or […] according to RECISTv1.1. Chi-square test was used to examine the difference in baseline patient characteristics among the three cohorts. Allelic distribution of all SNPs by ethnicity for deviation from Hardy-Weinberg equilibrium and the allelic frequencies of SNPs were tested using the Chi-square tests with one degree of freedom. The associations between candidate SNPs and disease control, and toxicities were examined using contingency tables and Fisher's exact test. The associations of SNPs with PFS and OS were analysed using Kaplan-Meier curves and the log-rank test. Because the true mode of inheritance of candidate SNPs was not established yet, a codominant or dominant genetic model if appropriate was considered.
# All patients underwent the treatment in salvage-line setting. […] In all patients, adverse events were graded according to the Common Terminology Criteria for Adverse Events, version 4.0. […]
# Genomic DNA was extracted from peripheral whole blood in patients of all cohorts using the QIAmp Kit (Qiagen, Valencia, Calif., USA) according to the manufacturer's protocol (www.qiagen.com). The candidate SNPs were tested using PCR-based direct DNA sequence analysis by ABI 3100A Capillary Genetic Analyzer and Sequencing Scanner v1.0 (Applied Biosystems). […] The investigators analyzing SNPs were blinded to the clinical data.
# The primary endpoint in this study was progression-free survival (PFS), and the secondary endpoints were overall survival (OS) and disease control rate (DCR).
# [1] = PCNA rs25406 G/A vs G/G, univariate
# [2] = Pin1 rs2233678 G/C vs G/G, multivariable
# [3] = Pin1 rs2233678 G/C vs G/G, univariate
# [4] = Pin1 rs2233679 Any T vs C/C, multivariable
# [5] = Pin1 rs2233679 Any T vs C/C, univariate
# [6] = Pin1 rs2233679 C/T vs C/C, multivariable
# [7] = Pin1 rs2233679 C/T vs C/C, univariate
# [8] = Pin1 rs2233679 T/T vs C/C, multivariable
# [9] = Pin1 rs2233679 T/T vs C/C, univariate
# [10] = RAD51 rs1801320 G/C vs G/G, multivariable
# [11] = RAD51 rs1801320 G/C vs G/G, univariate
# [12] = ATM rs609429 Any G vs C/C (Ref.), multivariable
# [13] = ATM rs609429 Any G vs C/C (Ref.), univariate
# [14] = ATM rs609429 G/C vs C/C (Ref.), multivariable
# [15] = ATM rs609429 G/C vs C/C (Ref.), univariate
# [16] = ATM rs609429 G/G vs C/C (Ref.), multivariable
# [17] = ATM rs609429 G/G vs C/C (Ref.), univariate
substance,measurement,setting,value
Trifluridine/tipiracil [TAS-102],OS HR (95% CI)†,[1],"0.62 (0.22, 1.71)"
same,PFS HR (95% CI) †,[1],"0.68 (0.32, 1.41)"
same,"OS median, months (95% CI)",PCNA rs25406 G/G,"8.3 (2.7, 14.8+) months"
same,"PFS median, months (95% CI)",PCNA rs25406 G/G,"2.1 (1.6, 4.2) months"
same,"OS median, months (95% CI)",Pin1 rs2233678 G/C,"4.2 (2.7, 5.7+) months"
same,"PFS median, months (95% CI)",Pin1 rs2233678 G/C,"1.7 (1.6, 1.8+) months"
same,OS HR (95% CI)‡,[2],"7.21 (1.47, 35.33)"
same,PFS HR (95% CI) ‡,[2],"5.08 (1.11, 23.23)"
same,OS HR (95% CI)†,[3],"4.23 (0.92, 19.42)"
same,PFS HR (95% CI) †,[3],"3.66 (0.79, 16.99)"
same,"OS median, months (95% CI)",Pin1 rs2233678 G/G,"8.3 (6.3, 15.6+) months"
same,"PFS median, months (95% CI)",Pin1 rs2233678 G/G,"2.9 (2.1, 3.4) months"
same,"OS median, months (95% CI)",Pin1 rs2233679 Any T,"8.3 (6.3, 14.8+) months"
same,"PFS median, months (95% CI)",Pin1 rs2233679 Any T,"3.3 (1.8, 3.7) months"
same,OS HR (95% CI)‡,[4],"1.05 (0.43, 2.54)"
same,PFS HR (95% CI) ‡,[4],"1.01 (0.53, 1.94)"
same,OS HR (95% CI)†,[5],"0.95 (0.40, 2.26)"
same,PFS HR (95% CI) †,[5],"0.84 (0.45, 1.57)"
same,"OS median, months (95% CI)",Pin1 rs2233679 C/C,"7.2 (4.9, 15.6+) months"
same,"PFS median, months (95% CI)",Pin1 rs2233679 C/C,"2.3 (1.8, 3.4) months"
same,"OS median, months (95% CI)",Pin1 rs2233679 C/T,"8.3 (6.3, 12.4+) months"
same,"PFS median, months (95% CI)",Pin1 rs2233679 C/T,"2.9 (1.8, 3.7) months"
same,OS HR (95% CI)‡,[6],"1.04 (0.41, 2.64)"
same,PFS HR (95% CI) ‡,[6],"1.03 (0.52, 2.03)"
same,OS HR (95% CI)†,[7],"1.05 (0.41, 2.65)"
same,PFS HR (95% CI) †,[7],"0.90 (0.46, 1.75)"
same,"OS median, months (95% CI)",Pin1 rs2233679 T/T,"8.1 (3.1, 14.8+) months"
same,"PFS median, months (95% CI)",Pin1 rs2233679 T/T,"3.4 (1.6, 4.6) months"
same,OS HR (95% CI)‡,[8],"1.08 (0.24, 4.91)"
same,PFS HR (95% CI) ‡,[8],"0.95 (0.34, 2.67)"
same,OS HR (95% CI)†,[9],"0.74 (0.20, 2.75)"
same,PFS HR (95% CI) †,[9],"0.70 (0.28, 1.79)"
same,"OS median, months (95% CI)",RAD51 rs1801320 G/C,"6.3 (1.4, 8.4+) months"
same,"PFS median, months (95% CI)",RAD51 rs1801320 G/C,"3.2 (0.9, 3.4) months"
same,OS HR (95% CI)‡,[10],"2.28 (0.81, 6.48)"
same,PFS HR (95% CI) ‡,[10],"1.34 (0.60, 3.00)"
same,OS HR (95% CI)†,[11],"2.19 (0.78, 6.14)"
same,PFS HR (95% CI) †,[11],"1.57 (0.70, 3.50)"
same,"OS median, months (95% CI)",RAD51 rs1801320 G/G,"8.3 (5.7, 15.6+) months"
same,"PFS median, months (95% CI)",RAD51 rs1801320 G/G,"2.5 (2.0, 4.1) months"
same,PFS,"TAS-102 cohort n=52, combined hENT1 and OCT2/MATE1 variants: poor (11)",47.0 days
same,PFS,combined hENT1 and OCT2/MATE1 analysis: overall (52),80 days
same,PFS,combined hENT1 and OCT2/MATE1 variants: excellent (21),104.0 days
same,PFS,combined hENT1 and OCT2/MATE1 variants: fair (16),62.0 days
same,PFS,combined hENT1 and OCT2/MATE1 variants: good (4),80 days
same,OS (median),ATM rs609429 C/C (n=14),4.4 months
same,OS (median),"ATM rs609429 any G allele (G/C or G/G, n=38)",8.7 months
same,PFS (median),XRCC3 rs861539 G/A (n=17),3.8 months
same,PFS (median),XRCC3 rs861539 G/G (n=35),2.3 months
same,"Disease Control CR/PR/SD, patients n (%)",ATM rs609429 Any G,10 (29%)
same,Median OS (95% CI),ATM rs609429 Any G,"8.7 (6.3, 15.6+) months"
same,Median PFS (95% CI),ATM rs609429 Any G,"2.7 (2.1, 3.4) months"
same,"PD, patients n (%)",ATM rs609429 Any G,25 (71%)
same,HR OS (95% CI),[12],"0.24 (0.07, 0.80)"
same,HR PFS (95% CI),[12],"1.37 (0.57, 3.26)"
same,HR OS (95% CI),[13],"0.37 (0.14, 0.99)"
same,HR PFS (95% CI),[13],"1.53 (0.70, 3.35)"
same,"Disease Control CR/PR/SD, patients n (%)",ATM rs609429 C/C,5 (45%)
same,Median OS (95% CI),ATM rs609429 C/C,"4.4 (3.1, 8.3+) months"
same,Median PFS (95% CI),ATM rs609429 C/C,"3.3 (1.6, 6.0+) months"
same,"PD, patients n (%)",ATM rs609429 C/C,6 (55%)
same,"Disease Control CR/PR/SD, patients n (%)",ATM rs609429 G/C,8 (32%)
same,Median OS (95% CI),ATM rs609429 G/C,"12.4 (6.3, 15.6+) months"
same,Median PFS (95% CI),ATM rs609429 G/C,"2.9 (1.8, 3.4) months"
same,"PD, patients n (%)",ATM rs609429 G/C,17 (68%)
same,HR OS (95% CI),[14],"0.19 (0.05, 0.68)"
same,HR PFS (95% CI),[14],"1.30 (0.53, 3.19)"
same,HR OS (95% CI),[15],"0.32 (0.11, 0.91)"
same,HR PFS (95% CI),[15],"1.53 (0.68, 3.43)"
same,"Disease Control CR/PR/SD, patients n (%)",ATM rs609429 G/G,2 (20%)
same,Median OS (95% CI),ATM rs609429 G/G,"8.7 (1.2, 14.8+) months"
same,Median PFS (95% CI),ATM rs609429 G/G,"2.6 (1.2, 4.1) months"
same,"PD, patients n (%)",ATM rs609429 G/G,8 (80%)
same,HR OS (95% CI),[16],"0.39 (0.10, 1.54)"
same,HR PFS (95% CI),[16],"1.56 (0.56, 4.37)"
same,HR OS (95% CI),[17],"0.52 (0.16, 1.73)"
same,HR PFS (95% CI),[17],"1.55 (0.59, 4.04)"
same,"Disease Control Rate SD, patients n (%)",ATR rs2227928 A/A,3 (20%)
same,"PD, patients n (%)",ATR rs2227928 A/A,12 (80%)
same,"Disease Control Rate SD, patients n (%)",ATR rs2227928 A/G,7 (32%)
same,"PD, patients n (%)",ATR rs2227928 A/G,15 (68%)
same,"Disease Control Rate SD, patients n (%)",ATR rs2227928 Any G,12 (39%)
same,"PD, patients n (%)",ATR rs2227928 Any G,19 (61%)
same,"Disease Control Rate SD, patients n (%)",ATR rs2227928 G/G,5 (56%)
same,"PD, patients n (%)",ATR rs2227928 G/G,4 (44%)
same,"Disease Control Rate SD, patients n (%)",BRCA1 rs16941 Any C,8 (30%)
same,"PD, patients n (%)",BRCA1 rs16941 Any C,19 (70%)
same,"Disease Control Rate SD, patients n (%)",BRCA1 rs16941 C/C,1 (20%)
same,"PD, patients n (%)",BRCA1 rs16941 C/C,4 (80%)
same,"Disease Control Rate SD, patients n (%)",BRCA1 rs16941 T/C,7 (32%)
